Experiments:
Experiment in all cases: KinomeScan kinase panel, single concentration 10 µM
Format in all cases: binding
KinomeScan kinase panel [1] = biological target: T1, KinomeScan kinase panel (Homo sapiens, UniProt O14920); settings: IKK-beta, 10 µM; read-out: score (%)
T1 construct: purchased DiscoveRx (KinomeScan)
T1 sequence (O14920 1-756): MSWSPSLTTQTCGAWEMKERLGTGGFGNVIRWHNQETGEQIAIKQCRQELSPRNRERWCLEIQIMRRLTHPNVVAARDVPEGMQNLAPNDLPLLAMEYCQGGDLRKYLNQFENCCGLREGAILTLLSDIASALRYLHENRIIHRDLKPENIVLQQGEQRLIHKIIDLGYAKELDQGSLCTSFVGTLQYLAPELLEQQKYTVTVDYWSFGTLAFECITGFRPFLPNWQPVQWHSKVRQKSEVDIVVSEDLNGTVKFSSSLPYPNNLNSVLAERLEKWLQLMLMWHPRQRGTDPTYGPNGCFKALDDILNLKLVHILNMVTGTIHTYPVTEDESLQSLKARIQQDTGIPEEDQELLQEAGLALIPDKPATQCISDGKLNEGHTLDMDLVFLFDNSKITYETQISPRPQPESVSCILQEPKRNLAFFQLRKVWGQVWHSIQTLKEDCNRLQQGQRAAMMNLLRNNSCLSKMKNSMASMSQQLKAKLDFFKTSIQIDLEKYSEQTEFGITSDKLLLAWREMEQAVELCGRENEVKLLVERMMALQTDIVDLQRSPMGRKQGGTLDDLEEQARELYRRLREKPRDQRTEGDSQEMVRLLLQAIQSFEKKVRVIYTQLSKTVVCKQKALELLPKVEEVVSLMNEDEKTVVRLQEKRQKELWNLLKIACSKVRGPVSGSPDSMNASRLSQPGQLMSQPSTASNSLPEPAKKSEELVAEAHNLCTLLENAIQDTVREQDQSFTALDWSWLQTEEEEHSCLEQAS

KinomeScan kinase panel [2] = biological target: T2, KinomeScan kinase panel (Homo sapiens, UniProt P15735); settings: PHKG2, 10 µM; read-out: score (%)
T2 construct: purchased DiscoveRx (KinomeScan)
T2 sequence (P15735 1-406): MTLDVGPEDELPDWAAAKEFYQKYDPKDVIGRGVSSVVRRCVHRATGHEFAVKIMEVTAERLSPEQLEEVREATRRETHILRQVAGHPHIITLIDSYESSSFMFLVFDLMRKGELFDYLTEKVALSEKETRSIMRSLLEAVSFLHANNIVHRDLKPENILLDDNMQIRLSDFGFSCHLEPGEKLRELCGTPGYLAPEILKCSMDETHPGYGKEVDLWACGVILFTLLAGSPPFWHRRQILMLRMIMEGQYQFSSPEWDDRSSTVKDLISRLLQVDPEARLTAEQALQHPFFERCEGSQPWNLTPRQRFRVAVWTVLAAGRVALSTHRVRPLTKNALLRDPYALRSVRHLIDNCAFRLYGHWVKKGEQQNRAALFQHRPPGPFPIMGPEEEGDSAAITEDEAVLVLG

KinomeScan kinase panel [3] = biological target: T3, KinomeScan kinase panel (Homo sapiens, UniProt Q13557); settings: CAMK2D, 10 µM; read-out: score (%)
T3 construct: purchased DiscoveRx (KinomeScan)

KinomeScan kinase panel [4] = biological target: T4, KinomeScan kinase panel (Homo sapiens, UniProt Q9Y616); settings: IRAK3, 10 µM; read-out: score (%)
T4 construct: purchased DiscoveRx (KinomeScan)
T4 sequence (Q9Y616 1-596): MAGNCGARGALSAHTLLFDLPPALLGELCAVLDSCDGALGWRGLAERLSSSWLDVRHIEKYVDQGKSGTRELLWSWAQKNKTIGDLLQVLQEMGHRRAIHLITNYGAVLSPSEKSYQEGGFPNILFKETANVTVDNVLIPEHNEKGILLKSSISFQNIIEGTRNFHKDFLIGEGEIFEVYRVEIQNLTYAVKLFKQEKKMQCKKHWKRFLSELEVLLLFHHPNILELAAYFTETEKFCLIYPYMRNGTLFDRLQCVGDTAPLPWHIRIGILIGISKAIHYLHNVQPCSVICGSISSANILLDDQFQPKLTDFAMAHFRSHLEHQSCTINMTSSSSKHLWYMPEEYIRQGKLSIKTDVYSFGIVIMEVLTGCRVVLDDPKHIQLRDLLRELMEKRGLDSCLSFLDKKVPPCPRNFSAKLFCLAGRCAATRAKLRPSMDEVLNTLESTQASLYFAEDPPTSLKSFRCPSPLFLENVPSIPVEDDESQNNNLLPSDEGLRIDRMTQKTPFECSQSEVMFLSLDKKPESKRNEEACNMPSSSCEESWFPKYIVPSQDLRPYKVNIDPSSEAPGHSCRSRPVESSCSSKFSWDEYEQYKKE

T3 sequence (Q13557 whole entry): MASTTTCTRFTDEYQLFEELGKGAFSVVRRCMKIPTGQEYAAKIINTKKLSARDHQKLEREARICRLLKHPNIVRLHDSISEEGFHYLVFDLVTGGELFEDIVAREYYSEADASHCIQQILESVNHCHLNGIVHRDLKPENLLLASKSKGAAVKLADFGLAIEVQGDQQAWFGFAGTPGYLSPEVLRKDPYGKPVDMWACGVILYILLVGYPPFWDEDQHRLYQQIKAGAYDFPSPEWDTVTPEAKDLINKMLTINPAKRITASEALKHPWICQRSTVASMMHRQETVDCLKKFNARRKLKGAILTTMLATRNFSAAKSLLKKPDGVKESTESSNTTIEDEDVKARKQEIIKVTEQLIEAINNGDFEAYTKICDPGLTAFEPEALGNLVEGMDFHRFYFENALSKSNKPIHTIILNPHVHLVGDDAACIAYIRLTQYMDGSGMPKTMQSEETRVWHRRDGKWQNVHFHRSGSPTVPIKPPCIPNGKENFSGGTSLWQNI

Row | SMILES | remaining binding at 10 µM (KinomeScan kinase panel [1]) | remaining binding at 10 µM (KinomeScan kinase panel [2]) | remaining binding at 10 µM (KinomeScan kinase panel [3]) | remaining binding at 10 µM (KinomeScan kinase panel [4])
1 | CCN1CCN(Cc2ccc(NC(=O)c3ccc(C)c(NC(=O)c4cncc(-c5cccs5)c4)c3)cc2C(F)(F)F)CC1 [ALW-II-41-27] | 1.2% | > 30% | > 30% | > 30%
2 | CCN1CCN(Cc2ccc(NC(=O)c3ccc(C)c(/C=C/c4cnc5[nH]ccc5c4Cl)c3)cc2C(F)(F)F)CC1 [HG-6-63-01, (E)-3-(2-(4-chloro-1H-pyrrolo[2,3-b]pyridin-5-yl)vinyl)-N-(4-((4-ethylpiperazin-1-yl)methyl)-3-(trifluoromethyl)phenyl)-4-methylbenzamide] | 5.9% | > 30% | > 30% | > 30%
3 | CCN1CCN(Cc2ccc(NC(=O)c3ccc(C)c(C#Cc4cccnc4)c3)cc2C(F)(F)F)CC1 [XMD15-44] | 0% | 92% | > 30% | > 30%

— publication PMC4457528, “Identification of Novel Small Molecule Inhibitors of Oncogenic RET Kinase” (PLoS ONE, 2015)
